“And” between values parts separate entries of the source, which are not always exact repeats. Identical values can stand only once.
Columns and labels:
[1] = tested on: cytochrome P450-dependent 7-ethoxycoumarin O-deethylase (ECOD); assay: CYP-catalyzed ethoxycoumarin O-desalkylation (ECOD) inhibition assay with rat liver microsomes; format: biochemical; settings: rat hepatic microsomes; for ECOD activity: compound 0.08 mg/mL, activity relative to control (DMSO) = 100%
Protocol: (§1) Male Wistar rats ([…] weight) were obtained from Universidade da Zona Oeste (UEZO). The animals were kept under light- and temperature-controlled conditions and were provided with rodent laboratory chow and water ad libitum. The rats were euthanized prior to the preparation of cytosolic and microsomal fractions. The livers were removed, placed in ice-cold 0.1 M phosphate buffer (pH 7.4) and then homogenized. Fractions were prepared by differential centrifugation and protein content was determined by Peterson’s methods.
(§2) 5,4′-Dihydroxy-7,3′5′-trimethoxyisoflavone (9), 7,3′-di-O-methylorobol (10), piscigenin (11), and sequoiaflavone (15) were accurately weighed. Solutions were prepared at a concentration of 8 mg/mL using DMSO as a solvent. CYP1A and GST assays were used aliquots of 10 µL of solution.
Ethoxycoumarin O-desalkylation by rat liver microsomes was used as a probe to determine CYP1A activity. Ethoxycumarin (1 mM), NADPH (1 mM), magnesium chloride (10 mM) and rat liver microsomes (5.5 μg) were incubated in phosphate buffer (0.1 M), pH 7.8 (0.5 mL ﬁnal volume). Incubations were at 37 °C for 5 min. The reaction was terminated with trichloroacetic acid (TCA) 2.5% followed by centrifugation (1000 g, 10 min). Immediately before ﬂuorescence determination, 2 mL of glycine-NaOH buffer were added and fluorescence of cumarin was determined (excitation: 390 nm and emission 440 nm). CYP activity was calculated as amount of produced cumarin per minute per protein mg. Assays containing phytochemicals were compared with control with DMSO (dimethylsulfoxide).

[2] = tested on: glutathione S-transferase (GST); assay: Glutathione S-transferase (GST) inhibition assay (CDNB conjugation) with rat hepatic cytosolic fraction; format: biochemical; settings: for inhibition of GST activity: 0.08 mg/mL; for GST activity: compound 0.08 mg/mL, activity relative to control (DMSO), CDNB substrate
Protocol: as §1, §2
The conjugation of glutathione to 1-chloro-2,4,-dinitrobenzene (CDNB) was measured as a non-speciﬁc substrate for GST activity. To a quartz cuvette reduced cytosolic fraction (10 μg), CDNB (2 mM) and 100 mM potassium phosphate buffer (pH 6.1) were added in a ﬁnal volume of 1 mL. The cuvette was placed in a spectrophotometer and the reaction initiated by the addition of glutathione (5 mM). The increase in absorbance at 340 nm over a 3 min period was measured at room temperature. An extinction coefﬁcient of […] was used to determine activity from the initial slope of the reaction. GST activity was calculated as amount of produced conjugated per minute per protein mg. Assays containing phytochemicals were compared with control with DMSO (dimethylsulfoxide).

CYP1A1 = tested on: CYP1A1; set-up: method as in PMID 15661813; settings: HepG2 cell; cited from earlier work
[3] = tested on: 7-ethoxycoumarin O-deethylase (ECOD); set-up: method as in PMID 9522437; settings: liver microsomes from rats treated with 3-methylcholanthrene; cited from earlier work

Molecule	ECOD activity [1]	inhibition of GST activity [2]	GST activity [2] [%]	inhibition of ECOD activity ([1]; compared with control 100%, 0.08 mg/mL) [%]	CYP1A1 EROD activity (CYP1A1)	effect on microsomal ECOD activity [3]
COc1cc(O)c2c(=O)c(-c3cc(OC)c(O)c(OC)c3)coc2c1 [Compound 9, 5,4′-dihydroxy-7,5′,3′-trimethoxyisoflavone]	66.9 ±27.7%	~75%	25.3 ±5.3	–	–	–
COc1cc(O)c2c(=O)c(-c3ccc(O)c(OC)c3)coc2c1 [Compound 10, 7,3′-di-O-methylorobol]	77.8 ± 11.6%	not observed	–	–	–	–
COc1cc(-c2coc3cc(O)cc(O)c3c2=O)cc(OC)c1O [Compound 11, piscigenin]	53.5 ± 12.4%	~70%	32.2 ±1.3	–	–	–
COc1cc(O)c2c(=O)cc(-c3ccc(O)c(-c4c(O)cc(O)c5c(=O)cc(-c6ccc(O)cc6)oc45)c3)oc2c1 [Compound 15, sequoiaflavone]	24.8% and 24.8 ± 1.2%	–	77.4 ± 6.7	75	–	–
COc1cc(OC)c2c(=O)cc(-c3ccccc3)oc2c1 [DMF, 5,7-Dimethoxyflavone]	–	–	–	–	virtually down to zero	–
(±)-catechin	–	–	–	–	–	no effect
